Data taken from ChEMBL document CHEMBL1128156, “Potent dual antagonists of endothelin and angiotensin II receptors derived from -phenoxyphenylacetic acids (Part III)” (Bioorg Med Chem Lett, 1995).

How the values were obtained:
[1] = biological target: T1, Endothelin receptor type B (Homo sapiens, UniProt P24530); experiment: Inhibition of human endothelin B (ETB) receptor expressed in CHO cells; type: cell-based
T1 sequence (P24530 whole entry): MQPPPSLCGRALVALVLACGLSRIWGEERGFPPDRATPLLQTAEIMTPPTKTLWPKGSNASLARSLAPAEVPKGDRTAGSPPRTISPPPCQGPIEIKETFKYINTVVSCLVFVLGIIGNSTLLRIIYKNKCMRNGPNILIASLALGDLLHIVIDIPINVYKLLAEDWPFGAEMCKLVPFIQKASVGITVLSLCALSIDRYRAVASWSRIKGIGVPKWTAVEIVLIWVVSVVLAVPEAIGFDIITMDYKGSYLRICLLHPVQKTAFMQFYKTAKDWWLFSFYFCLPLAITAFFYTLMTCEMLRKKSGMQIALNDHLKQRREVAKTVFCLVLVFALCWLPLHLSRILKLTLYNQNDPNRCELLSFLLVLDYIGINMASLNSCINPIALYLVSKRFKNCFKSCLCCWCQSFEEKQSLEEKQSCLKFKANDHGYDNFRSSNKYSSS

Endothelin-1 receptor = biological target: T2, Endothelin-1 receptor (Homo sapiens, UniProt P25101); experiment: Inhibition of human endothelin A (ETA) receptor expressed in CHO cells; type: cell-based
T2 sequence (P25101 whole entry): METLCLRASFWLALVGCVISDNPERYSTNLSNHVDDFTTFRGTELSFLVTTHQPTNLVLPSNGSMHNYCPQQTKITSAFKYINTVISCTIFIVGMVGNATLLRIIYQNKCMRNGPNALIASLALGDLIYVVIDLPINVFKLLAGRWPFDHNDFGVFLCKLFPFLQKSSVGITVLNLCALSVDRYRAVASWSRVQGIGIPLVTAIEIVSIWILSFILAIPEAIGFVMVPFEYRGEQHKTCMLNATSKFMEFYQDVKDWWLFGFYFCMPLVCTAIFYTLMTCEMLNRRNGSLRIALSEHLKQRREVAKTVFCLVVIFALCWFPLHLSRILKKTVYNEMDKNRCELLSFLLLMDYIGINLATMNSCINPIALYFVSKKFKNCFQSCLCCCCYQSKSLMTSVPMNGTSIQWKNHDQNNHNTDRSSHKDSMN

Structure (SMILES)	IC50 [1] [nM]	IC50 (Endothelin-1 receptor) [nM]
CCCc1cc(Cn2c(CC)nc3c(C)cc(C)nc32)cc(CCC)c1OC(C(=O)NS(=O)(=O)c1ccc(CC(C)C)s1)c1ccc2c(c1)OCO2 (centres undefined)	420	600
CCCc1cc(Cn2c(CC)nc3c(C)cc(C)nc32)cc(CCC)c1OC(C(=O)NS(=O)(=O)c1ccc(C(C)C)cc1)c1ccc2c(c1)OCO2 (centres undefined)	1300	330
CCCc1cc(Cn2c(CC)nc3c(C)cc(C)nc32)ccc1OC(C(=O)O)c1ccccc1 (centres undefined)	47000	11000
CCCc1cc(Cn2c(CC)nc3c(C)cc(C)nc32)cc(CCC)c1OC(C(=O)NS(=O)(=O)C(C)C)c1ccc2c(c1)OCO2 (centres undefined)	1900	700
CCCc1cc(Cn2c(CC)nc3c(C)cc(C)nc32)cc(CCC)c1OC(C(=O)NS(C)(=O)=O)c1ccc2c(c1)OCO2 (centres undefined)	1200	500
CCCc1cc(Cn2c(CC)nc3c(C)cc(C)nc32)ccc1OC(C(=O)O)c1ccc2c(c1)OCO2 (centres undefined)	1600	840
CCCc1cc(Cn2c(CC)nc3c(C)cc(C)nc32)cc(CCC)c1OC(C(=O)NS(=O)(=O)c1ccccc1)c1ccc2c(c1)OCO2 (centres undefined)	800	1600
CCCc1cc(Cn2c(CC)nc3c(C)cc(C)nc32)cc(CCC)c1OC(C(=O)O)c1ccc2c(c1)OCO2 (centres undefined)	230	38
CCCc1cc(Cn2c(CC)nc3c(C)cc(C)nc32)cc(CCC)c1OC(C(=O)O)c1cc(Br)c(OC)c(OC)c1Br (centres undefined)	31000	11000
CCCc1cc(Cn2c(CC)nc3c(C)cc(C)nc32)ccc1OC(C(=O)NS(=O)(=O)c1ccc(C(C)C)cc1)c1ccc2c(c1)OCO2 (centres undefined)	60	24
CCCc1cc(Cn2c(CC)nc3c(C)cc(C)nc32)cc(CCC)c1OC(C(=O)NS(=O)(=O)c1cccs1)c1ccc2c(c1)OCO2 (centres undefined)	540	820
CCCc1cc(Cn2c(CC)nc3c(C)cc(C)nc32)ccc1OC(C(=O)NS(=O)(=O)c1ccc(CC(C)C)s1)c1ccc2c(c1)OCO2 (centres undefined)	90	75
